Experimental data: PMC6413121, “Antiplasmodial and Cytotoxic Cytochalasins from an Endophytic Fungus, Nemania sp. UM10M, Isolated from a Diseased Torreya taxifolia Leaf” (Molecules, 2019)
Where two headings read alike, the source gives them in different places.

Assays:
[1] = system: P. falciparum D6 (chloroquine sensitive) strain; test: microbe, parasite or virus in culture; assay type: cell-based, Plasmodium falciparum; conditions: for Chloroquine-Sensitive (D6)-Strain S. I.: selectivity index = IC50 for cytotoxicity (Vero)/IC50 for antiplasmodial activity; for IC50: Plasmodium falciparum
[2] = system: P. falciparum W2 (chloroquine resistant) strain; test: microbe, parasite or virus in culture; assay type: cell-based, Plasmodium falciparum; conditions: for Chloroquine-Resistant (W2)-Strain S. I.: selectivity index = IC50 for cytotoxicity (Vero)/IC50 for antiplasmodial activity; for IC50: Plasmodium falciparum
[3] = system: Vero cells (mammalian kidney fibroblasts); test: in vitro; assay type: cell-based; conditions: highest concentration tested […]
[4] = system: P. berghei (NK-65 strain); test: In vivo antimalarial assay in mice infected with P. berghei; design: species or system mice (Swiss Webster); conditions: for Day of Death (post infection): one value per animal; for % Parasitemia Suppression Day 5 / % Parasitemia Suppression Day 7: vehicle control = 100% parasitemia, < 80% non-significant
Method: The protocol for in vivo antimalarial evaluation was approved by the University of Mississippi Institutional Animal Care and Use Committee (IACUC). The in vivo antimalarial activity was determined in mice infected with P. berghei (NK-65 strain). Male mice (Swiss Webster strain) weighing 18-20 g were intraperitoneally inoculated with 2 × 10^7 parasitized red blood cells obtained from a highly infected donor mouse. Mice were divided into different groups with five mice in each group. Compound stocks were prepared in DMSO and administered orally to the mice through gavage two hours after the infection (day 0). The animals were treated once daily for consecutive days (day 0 to 2) and were closely observed for at least 2 h after every dose for any apparent signs of toxicity. Blood smears were prepared on different days starting from 5 days post infection (through 28 days) by clipping the tail end, stained with Giemsa, and the slides were observed under microscope for determination of parasitemia. Mice without parasitemia through day 28 postinfection were considered as cured. Also, suppression in development of parasitemia was computed by comparing the parasitemia in the control vehicle treated group and groups treated with compound. The mean survival time was also computed for control and treated groups. The results are presented as parasitemia suppression of day 5 post treatment, mean survival time of mice in each group, cure and survival graphs computed by Prism 6.0. (San Diego, CA, USA).

in vitro [5] = assay type: cell-based; conditions: African green monkey
[6] = system: lettuce (Lactuca sativa cv. L., Iceberg); test: In vitro phytotoxicity assay, lettuce; conditions: 1 mg/mL; 10% acetone; scale of 0 to 5, 0 = no effect, 5 = no growth
Method: (§1) Herbicidal or phytotoxic activity of the extract and compounds was performed according to the published procedure using bentgrass (Agrostis stolonifera) and lettuce (Lactuca sativa cv. L., Iceberg), in 24-well plates. Phytotoxicity was ranked visually. The ranking of phytotoxic activity was based on a scale of 0 to 5 with 0 showing no effect and 5 no growth.

[7] = system: bentgrass (Agrostis stolonifera); test: In vitro phytotoxicity assay, bentgrass; conditions: 1 mg/mL; 10% acetone; scale of 0 to 5, 0 = no effect, 5 = no growth
Method: as §1

in vitro [8] = assay type: cell-based, human; conditions: human, concentration causing 50% growth inhibition
Method: (§2) In vitro cytotoxicity was determined against a panel of mammalian cells that included kidney fibroblast (Vero), kidney epithelial (LLC-PK11), malignant melanoma (SK-MEL), oral epidermal carcinoma (KB), breast ductal carcinoma (BT-549), and ovary carcinoma (SK-OV-3) cells Doxorubicin was used as a positive control.

in vitro [9] = assay type: cell-based, pig; conditions: pig; concentration causing 50% growth inhibition; read-out: Cytotoxic activity IC50, LLC-PK11
Method: as §2

[10] = intraperitoneal, subcutaneous, or intravenous injections up to 100 mg/kg/day; cited from earlier work
[11] = system: BT-549 (human breast carcinoma, ductal); test: in vitro; assay type: cell-based; conditions: concentration causing 50% growth inhibition; read-out: Cytotoxic activity IC50, BT-549
Method: as §2

[12] = system: KB (human epidermal carcinoma); test: in vitro; assay type: cell-based; conditions: concentration causing 50% growth inhibition; read-out: Cytotoxic activity IC50, KB
Method: as §2

[13] = system: SK-MEL (human malignant melanoma); test: in vitro; assay type: cell-based; conditions: concentration causing 50% growth inhibition; read-out: Cytotoxic activity IC50, SK-MEL
Method: as §2

[14] = system: SK-OV-3 (human ovary carcinoma); test: in vitro; assay type: cell-based; conditions: concentration causing 50% growth inhibition; read-out: Cytotoxic activity IC50, SK-OV-3
Method: as §2

[15] = system: LLC-PK11 (pig kidney epithelial); test: in vitro; assay type: cell-based; conditions: concentration causing 50% growth inhibition; read-out: Cytotoxic activity IC50, LLC-PK11
Method: as §2

[16] = W2, read-out: Chloroquine-Resistant (W2)-Strain IC50
[17] = W2, read-out: Chloroquine-Resistant (W2)-Strain IC50 (ng/mL)
[18] = PO, 100 mg/kg × 3 days, P. berghei
[19] = P. falciparum D6, read-out: Chloroquine-Sensitive (D6)-Strain IC50
[20] = P. falciparum D6, read-out: Chloroquine-Sensitive (D6)-Strain IC50 (ng/mL)
[21] = highest concentration tested […], read-out: Cytotoxicity to Vero Cells IC50
[22] = read-out: Cytotoxicity to Vero cells
[23] = read-out: Cytotoxic activity IC50, BT-549
[24] = read-out: Cytotoxic activity IC50, KB
[25] = read-out: Cytotoxic activity IC50, SK-MEL
[26] = read-out: Cytotoxic activity IC50, SK-OV-3

Row | SMILES | Chloroquine-Sensitive (D6)-Strain S. I. [1] | Chloroquine-Resistant (W2)-Strain S. I. [2] | IC50 [2, 16] [µM] | IC50 [2, 17] [ng/mL] | IC50 [1, 19] [µM] | IC50 [1, 20] [ng/mL] | IC50 (in vitro [5]; [21]) [µg/mL] | Phytotoxic activity, Lettuce (ranking) [6] | Phytotoxic activity, Bentgrass (ranking) [7] | IC50 (in vitro [8]; [23]) [µM] | IC50 (in vitro [8]; [24]) [µM] | IC50 (in vitro [8]; [25]) [µM] | IC50 (in vitro [8]; [26]) [µM] | IC50 (in vitro [9]) [µM] | Toxicity in animal models at therapeutic doses [10] | further results
1 | C[C@@H]1CC[C@H]2[C@@H](C)C(=O)O[C@@H]3O[C@@]4(C)CC[C@@H]1[C@]32OO4 [Artemisinin, reference compound] | >850 | >1586.6 | – | – | – | – | – | – | – | – | – | – | – | – | – | Cytotoxicity to Vero Cells IC50 [3]: NC (not cytotoxic at the highest concentration tested (4760 ng/mL))
2 | CCN(CC)CCCC(C)Nc1ccnc2cc(Cl)ccc12 (stereo not drawn) [Chloroquine, reference compound] | – | – | 0.31 | 160 | – | – | – | – | – | – | – | – | – | – | – | IC50 ([1]; D6, read-out: Chloroquine-Sensitive (D6)-Strain IC50): 0.03 µM; IC50 ([1]; D6, read-out: Chloroquine-Sensitive (D6)-Strain IC50 (ng/mL)): 16 ng/mL; Cytotoxicity to Vero Cells IC50 [3]: NC (not cytotoxic at the highest concentration tested (4760 ng/mL)); Cure (mice without parasitemia till day 28 post-infection) [4, 18]: 2/5; MST (mean survival time) [4, 18]: 28 days; Survival (animals that survived day 28/total animals in group) [4, 18]: 5/5; Day of Death (post infection) [4, 18]: 28/28/28/28/28; % Parasitemia Suppression Day 5 [4, 18]: 100%; % Parasitemia Suppression Day 7 [4, 18]: 100%
3 | CC(=O)OC1C2OC2C(C)(O)C(=O)C(C)CC=CC2C(O)C(C)=C(C)C3C(Cc4ccccc4)NC(=O)C213 [Compound 1, (3S,4R,7S,8S,9R,16S,18R,19R,20S,21S)-19,20-epoxycytochalasin C] | >128.6 | >170 | 0.05 | 28 | 0.07 | 37 | > 4.76 | 3 | 2 | > 10 | > 10 | 8.02 | > 10 | > 10 | – | IC50 (in vitro [5]; [22]): > 4.76 µg/mL; MST (mean survival time) [4, 18]: 5.2 days; Survival (animals that survived day 28/total animals in group) [4, 18]: 0/5; Day of Death (post infection) [4, 18]: 17/5/3/1/0; % Parasitemia Suppression Day 5 [4, 18]: 33.9%; % Parasitemia Suppression Day 7 [4, 18]: 71.4%; Animals that died due to drug induced toxicity ([4]; oral, 100 mg/kg/day for 3 days): Three out of 5
4 | C=C1C(C)C2C(Cc3ccccc3)NC(=O)C23C(C=CCC(C)C(=O)C(C)(O)C2OC2C3OC(C)=O)C1O [Compound 2, (3S,4R,5S,7S,8S,9R,16S,18R,19R,20S,21S)-19,20-epoxycytochalasin D] | >216.3 | >238 | 0.04 | 20 | 0.04 | 22 | > 4.76 | 3 | 3 | 7.84 | > 10 | > 10 | > 10 | 8.4 | – | IC50 (in vitro [5]; [22]): > 4.76 µg/mL
5 | CC(=O)OC1C2OC2C(C)C(=O)C(C)CC=CC2C(O)C(C)=C(C)C3C(Cc4ccccc4)NC(=O)C213 [Compound 3, (3S,4R,7S,8S,9R,16(S),18S,19S,20R,21S)-18-deoxy-19,20-epoxycytochalasin C] | >17 | >47.6 | 0.19 | 100 | 0.56 | 280 | > 4.76 | 3 | 4 | 6.89 | > 10 | > 10 | > 10 | > 10 | – | –
6 | C=C1[C@@H](C)[C@H]2[C@H](Cc3ccccc3)NC(=O)[C@]23OC(=O)/C=C/[C@H](O)CCC[C@@H](C)C/C=C/[C@H]3[C@@H]1O [Cytochalasin B] | – | – | – | – | – | – | – | – | – | – | – | – | – | – | no toxicity | –
7 | C=C1[C@@H](C)[C@H]2[C@H](Cc3ccccc3)NC(=O)[C@]23[C@H](OC(C)=O)/C=C/[C@@](C)(O)C(=O)[C@@H](C)C/C=C/[C@H]3[C@@H]1O [Cytochalasin D] | – | – | – | – | – | – | – | – | – | – | – | – | – | – | no toxicity | –
8 | C[C@H]1C/C=C/[C@H]2[C@@H]3O[C@]3(C)[C@@H](C)[C@H]3[C@H](Cc4ccccc4)NC(=O)[C@]32OC(=O)O/C=C/[C@@](C)(O)C1=O [Cytochalasin E] | – | – | – | – | – | – | – | – | – | – | – | – | – | – | no toxicity | –
9 | COc1cccc2c1C(=O)c1c(O)c3c(c(O)c1C2=O)C[C@@](O)(C(=O)CO)C[C@@H]3O[C@H]1C[C@H](N)[C@H](O)[C@H](C)O1 [Doxorubicin, reference compound] | – | – | – | – | – | – | – | – | – | – | – | – | – | – | – | IC50 [11]: 1.83 µM; IC50 [12]: 2.12 µM; IC50 [13]: 1.29 µM; IC50 [14]: 1.47 µM; IC50 [15]: 1.28 µM
